US9909107B2, “Brassica AHAS genes and gene alleles that provide resistance to imidazolinone herbicides” (priority 2004, dated 2018)
Values joined by “and” are separate entries in the source; they are usually repeats but may differ in a detail not shown here. Identical values can stand only once.

What was measured:
[1] = tested on: AHAS enzyme in leaf discs of Susceptible check (B. juncea variety 'Arid'); assay: AHAS activity assay of leaf discs, susceptible check; assay type: biochemical, Brassica juncea
Experimental: (§1) Leaf discs were removed from seedling leaves of J04E-0044 and subjected to an assay of AHAS activity, as described by Singh et al. (Anal. Biochem. 171: 173-179, 1988). The assay measures AHAS activity by estimating the amount of product, acetolactate, after conversion by decarboxylation in the presence of acid to acetoin. The assay compares the AHAS activity in two leaf discs. The control leaf disc was incubated in 10 mM phosphate buffer (pH 6.0) containing 50 mM pyruvate, 500 uM cyclopropane dicarboxylic acid (CPCA), 10% M&S salts and 0.5% alanine. The other leaf disc was in the same buffer in the presence of 2.5 uM imazamox, an imidazolinone herbicide. The herbicide normally binds to the AHAS enzyme and inhibits activity. The incubations were carried out at 22° C. for 16 hrs followed by measuring the absorbance at A530 nm. A completely herbicide susceptible plant will have an AHAS activity level near zero when exposed to an inhibitory herbicide, while a tolerant plant will have AHAS activity nearly equal to that of the control. A plant with a mutated AHAS gene in one genome but not the other will have intermediate AHAS activity in the present of enzyme inhibitor. The procedure was modified to include the addition of cydopropane dicarboxylic acid (CPCA), which prevents the further conversion of acetolactate to valine and leucine. In addition to an imidazolinone herbicide as an inhibitor, a sulfonylurea herbicide (chlorsulfuron) was also used on separate leaf discs to test for cross-tolerance in the same way except that 0.2 uM chlorsulfuron was used instead of 2.5 uM imazamox. In this table, the line PM1 is a B. napus variety with a mutation affecting the AHAS1 gene in the C genome only and PM2 is a B. napus variety with a mutation in the AHAS3 gene, located in the A genome. Susceptible check is a commercial B. juncea variety.

[2] = target: T1, AHAS enzyme in leaf discs of PM1 (mutation affecting the AHAS1 gene in the C genome) (Brassica napus, UniProt P27818, S638N); assay: AHAS activity assay of leaf discs, line PM1; assay type: biochemical; settings: for tolerance provided by the mutation (in words): PM1 mutation
T1 construct: Relative AHAS activity of leaf discs exposed; from tissue; host or cells: leaf discs of B. napus line PM1
Experimental: as §1

[3] = target: T2, AHAS enzyme in leaf discs of PM2 (mutation in the AHAS3 gene, A genome) (Brassica napus, UniProt P27819, W556L); assay: AHAS activity assay of leaf discs, line PM2; assay type: biochemical; settings: for tolerance provided by the mutation (in words): PM2 mutation in the A genome
T2 construct: Relative AHAS activity of leaf discs exposed; from tissue; host or cells: leaf discs of B. napus line PM2
Experimental: as §1

[4] = tested on: AHAS enzyme in leaf discs of J04E-0044 (BjAHAS-bR mutant allele); assay: AHAS activity assay of leaf discs, line J04E-0044; assay type: biochemical, Brassica juncea; settings: for tolerance provided by the mutation (in words): mutation in B. juncea variety J04E-0044
Experimental: as §1

T1 sequence (P27818 83-655 S638N): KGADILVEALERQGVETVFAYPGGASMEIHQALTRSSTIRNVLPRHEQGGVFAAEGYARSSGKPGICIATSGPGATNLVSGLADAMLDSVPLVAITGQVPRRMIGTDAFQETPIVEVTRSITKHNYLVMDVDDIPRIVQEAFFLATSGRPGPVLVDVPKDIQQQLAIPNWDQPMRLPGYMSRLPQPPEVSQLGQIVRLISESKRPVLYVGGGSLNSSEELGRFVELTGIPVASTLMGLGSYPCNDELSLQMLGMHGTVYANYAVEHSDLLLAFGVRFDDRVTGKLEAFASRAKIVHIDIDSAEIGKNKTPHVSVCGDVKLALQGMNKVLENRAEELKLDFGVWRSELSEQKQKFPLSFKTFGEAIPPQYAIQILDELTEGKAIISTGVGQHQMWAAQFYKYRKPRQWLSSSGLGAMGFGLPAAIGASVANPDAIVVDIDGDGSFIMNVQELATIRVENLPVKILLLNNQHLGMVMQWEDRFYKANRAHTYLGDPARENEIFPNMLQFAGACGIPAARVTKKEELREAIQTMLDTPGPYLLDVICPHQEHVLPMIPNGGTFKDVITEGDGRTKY
T2 sequence (P27819 70-652 W556L): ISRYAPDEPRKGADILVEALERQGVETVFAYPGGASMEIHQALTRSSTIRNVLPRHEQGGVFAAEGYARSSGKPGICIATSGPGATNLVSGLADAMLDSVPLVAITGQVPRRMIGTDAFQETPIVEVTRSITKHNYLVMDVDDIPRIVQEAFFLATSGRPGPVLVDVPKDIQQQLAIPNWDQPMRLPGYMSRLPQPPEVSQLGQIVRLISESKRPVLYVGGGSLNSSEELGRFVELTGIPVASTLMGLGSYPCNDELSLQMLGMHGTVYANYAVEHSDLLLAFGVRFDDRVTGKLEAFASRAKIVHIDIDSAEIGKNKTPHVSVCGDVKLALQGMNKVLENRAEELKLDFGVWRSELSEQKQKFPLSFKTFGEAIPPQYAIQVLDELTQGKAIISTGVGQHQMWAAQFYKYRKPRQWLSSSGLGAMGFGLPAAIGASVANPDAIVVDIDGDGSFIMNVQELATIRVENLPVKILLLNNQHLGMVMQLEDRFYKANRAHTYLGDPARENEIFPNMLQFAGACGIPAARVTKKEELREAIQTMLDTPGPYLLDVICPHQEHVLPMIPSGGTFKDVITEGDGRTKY

Row | SMILES | Relative AHAS activity with chlorsulfuron (0-1) ([1]; Susceptible check leaf disc, 0.2 uM chlorsulfuron vs control disc, 22° C., 16 hrs, scale 0-1) | tolerance provided by the mutation (in words) [2] | tolerance provided by the mutation (in words) [3] | tolerance provided by the mutation (in words) [4] | AHAS activity in the presence of an imidazolinone herbicide relative to without the inhibitor ([1]; Arid (susceptible check)) | Relative AHAS activity with imidazolinone (0-1) ([1]; Susceptible check leaf disc, 2.5 uM imazamox vs control disc, 22° C., 16 hrs, scale 0-1) | Relative AHAS activity with imidazolinone (0-1) ([2]; PM1 leaf disc, 2.5 uM imazamox vs control disc, 22° C., 16 hrs, scale 0-1, assays #1-3) | Relative AHAS activity with imidazolinone (0-1) ([3]; PM2 leaf disc, 2.5 uM imazamox vs control disc, 22° C., 16 hrs, scale 0-1, assays #1-2) | relative AHAS activity ([4]; J04E-0044, imidazolinone as AHAS activity inhibitor (Table 1)) | Relative AHAS activity with imidazolinone (0-1) ([4]; J04E-0044 leaf disc, 2.5 uM imazamox vs control disc, 22° C., 16 hrs, scale 0-1, assays #1-3)
1 | COc1nc(C)nc(NC(=O)NS(=O)(=O)c2ccccc2Cl)n1 [chlorsulfuron] | 0.029 | no tolerance | tolerance | little tolerance | – | – | – | – | – | –
2 | COCc1cnc(C2=NC(C)(C(C)C)C(=O)N2)c(C(=O)O)c1 (stereo not shown) [imidazolinone, imazamox] | – | less tolerance | tolerance | tolerance equal to that of PM2 | less than 2% | 0.018 | 0.256 and 0.292 and 0.276 | 0.607 and 0.722 | 70% and 79% and 91% | 0.703 and 0.793 and 0.919
